HELM strings list units from the 5' end as sugar, base in round brackets, then linkage (d deoxyribose, r ribose, m 2'-O-methyl, p phosphodiester). Strings are as the collection lists them, not checked against the first reports. ss, as = sense and antisense strand; [s4r] = 4'-thioribose; [fl2r] = 2'-fluoro
Settings: siRNA
Also: test system not given here.

Substance	target mRNA knockdown [%]
RNA1{r(C)p.r(C)p.r(G)p.r(C)p.r(C)p.r(C)p.r(G)p.r(G)p.r(C)p.r(G)p.r(G)p.r(C)p.r(G)p.r(C)p.r(C)p.r(U)p.r(U)p.r(U)p.m(A)p.r(T)p.r(T)}|RNA2{m(U)p.m(A)p.r(A)p.r(A)p.r(G)p.r(G)p.r(C)p.r(G)p.r(C)p.r(C)p.r(G)p.r(C)p.r(C)p.r(G)p.r(G)p.r(G)p.r(C)p.r(G)p.r(G)p.r(T)p.r(T)}$$$RNA1{StrandType:ss}|RNA2{StrandType:as}$	82
RNA1{r(C)p.r(C)p.r(U)p.r(C)p.r(C)p.r(C)p.m(C)p.r(A)p.r(U)p.r(C)p.r(C)p.r(C)p.r(C)p.r(U)p.r(U)p.r(U)p.m(U)p.r(A)p.r(A)p.r(T)p.r(T)}|RNA2{r(U)p.r(U)p.m(A)p.r(A)p.r(A)p.r(A)p.r(G)p.r(G)p.r(G)p.r(G)p.r(A)p.m(U)p.r(G)p.r(G)p.r(G)p.r(G)p.r(A)p.r(G)p.r(G)p.r(T)p.r(T)}$$$RNA1{StrandType:ss}|RNA2{StrandType:as}$	80
RNA1{r(C)p.r(C)p.r(U)p.r(C)p.r(C)p.r(C)p.r(C)p.r(A)p.r(U)p.r(C)p.r(C)p.r(C)p.r(C)p.r(U)p.r(U)p.r(U)p.r(U)p.r(A)p.r(A)p.r(T)p.r(T)}|RNA2{r(U)p.r(U)p.m(A)p.r(A)p.r(A)p.r(A)p.r(G)p.r(G)p.r(G)p.r(G)p.r(A)p.r(U)p.r(G)p.r(G)p.r(G)p.r(G)p.r(A)p.r(G)p.r(G)p.r(T)p.r(T)}$$$RNA1{StrandType:ss}|RNA2{StrandType:as}$	80
RNA1{r(C)p.r(C)p.r(U)p.r(C)p.r(G)p.r(G)p.r(A)p.r(G)p.r(A)p.r(G)p.r(U)p.r(U)p.r(C)p.m(U)p.r(A)p.r(C)p.r(U)p.r(C)p.r(U)p.r(T)p.r(T)}|RNA2{r(A)p.r(G)p.r(A)p.r(G)p.m(U)p.r(A)p.r(G)p.r(A)p.r(A)p.r(C)p.r(U)p.r(C)p.r(U)p.r(C)p.r(C)p.r(G)p.r(A)p.r(G)p.r(G)p.r(T)p.r(T)}$$$RNA1{StrandType:ss}|RNA2{StrandType:as}$	85
RNA1{r(C)p.r(C)p.r(U)p.r(C)p.r(G)p.r(G)p.r(A)p.r(G)p.r(A)p.r(G)p.r(U)p.r(U)p.r(C)p.r(U)p.r(A)p.r(C)p.r(U)p.r(C)p.r(U)p.r(T)p.r(T)}|RNA2{r(A)p.r(G)p.r(A)p.r(G)p.m(U)p.r(A)p.r(G)p.r(A)p.r(A)p.r(C)p.r(U)p.r(C)p.r(U)p.r(C)p.r(C)p.r(G)p.r(A)p.r(G)p.r(G)p.r(T)p.r(T)}$$$RNA1{StrandType:ss}|RNA2{StrandType:as}$	85
RNA1{r(C)p.r(G)p.[s4r](U)p.r(A)p.r(C)p.r(G)p.r(C)p.r(G)p.r(G)p.r(A)p.r(A)p.[s4r](U)p.r(A)p.r(C)p.[s4r](U)p.[s4r](U)p.r(C)p.r(G)p.r(A)p.r(T)p.r(T)}|RNA2{r(U)p.r(C)p.r(G)p.r(A)p.r(A)p.r(G)p.r(U)p.r(A)p.r(U)p.r(U)p.r(C)p.r(C)p.r(G)p.r(C)p.r(G)p.r(U)p.r(A)p.r(C)p.r(G)p.r(T)p.r(T)}$$$RNA1{StrandType:ss}|RNA2{StrandType:as}$	96.3
RNA1{r(C)p.r(G)p.m(C)p.r(C)p.r(C)p.m(C)p.r(C)p.r(C)p.r(U)p.m(C)p.r(A)p.r(A)p.r(G)p.r(C)p.m(U)p.r(A)p.r(C)p.r(C)p.r(G)p.r(T)p.r(T)}|RNA2{r(C)p.r(G)p.r(G)p.m(U)p.r(A)p.r(G)p.r(C)p.r(U)p.m(U)p.r(G)p.r(A)p.r(G)p.r(G)p.r(G)p.r(G)p.r(G)p.r(G)p.r(C)p.r(G)p.r(T)p.r(T)}$$$RNA1{StrandType:ss}|RNA2{StrandType:as}$	72
RNA1{r(C)p.r(G)p.r(A)p.r(A)p.r(A)p.r(G)p.[fl2r](U)p.r(G)p.[fl2r](U)p.r(A)p.r(U)p.r(C)p.r(C)p.r(G)p.r(A)p.r(A)p.r(G)p.r(A)p.r(C)p.r(T)p.r(T)}|RNA2{r(G)p.r(U)p.r(C)p.r(U)p.r(U)p.r(C)p.r(G)p.r(G)p.r(A)p.[fl2r](U)p.r(A)p.[fl2r](C)p.r(A)p.r(C)p.r(U)p.r(U)p.r(U)p.r(C)p.r(G)p.r(T)p.r(T)}$$$RNA1{StrandType:ss}|RNA2{StrandType:as}$	75
RNA1{r(C)p.r(G)p.r(A)p.r(A)p.r(A)p.r(G)p.r(U)p.r(G)p.r(U)p.r(A)p.r(U)p.r(C)p.r(C)p.r(G)p.r(A)p.r(A)p.r(G)p.r(A)p.r(C)p.r(T)p.r(T)}|RNA2{r(G)p.r(U)p.r(C)p.r(U)p.r(U)p.r(C)p.r(G)p.r(G)p.r(A)p.[fl2r](U)p.r(A)p.r(C)p.r(A)p.r(C)p.r(U)p.r(U)p.r(U)p.r(C)p.r(G)p.r(T)p.r(T)}$$$RNA1{StrandType:ss}|RNA2{StrandType:as}$	69
RNA1{r(C)p.r(G)p.r(A)p.r(C)p.[fl2r](G)p.r(A)p.r(U)p.r(U)p.r(C)p.r(U)p.r(U)p.r(C)p.[fl2r](U)p.r(A)p.r(C)p.r(U)p.r(C)p.r(A)p.r(A)p.r(T)p.r(T)}|RNA2{r(U)p.[fl2r](U)p.r(G)p.r(A)p.r(G)p.[fl2r](U)p.r(A)p.r(G)p.r(A)p.r(A)p.r(G)p.r(A)p.r(A)p.r(U)p.r(C)p.r(G)p.r(U)p.r(C)p.r(G)p.r(T)p.r(T)}$$$RNA1{StrandType:ss}|RNA2{StrandType:as}$	62
RNA1{r(C)p.r(G)p.r(A)p.r(C)p.r(G)p.r(A)p.r(U)p.r(U)p.r(C)p.r(U)p.r(U)p.r(C)p.[fl2r](U)p.r(A)p.r(C)p.r(U)p.r(C)p.r(A)p.r(A)p.r(T)p.r(T)}|RNA2{r(U)p.r(U)p.r(G)p.r(A)p.r(G)p.[fl2r](U)p.r(A)p.r(G)p.r(A)p.r(A)p.r(G)p.r(A)p.r(A)p.r(U)p.r(C)p.r(G)p.r(U)p.r(C)p.r(G)p.r(T)p.r(T)}$$$RNA1{StrandType:ss}|RNA2{StrandType:as}$	67
RNA1{r(C)p.r(G)p.r(A)p.r(G)p.m(U)p.r(G)p.r(U)p.r(C)p.m(U)p.r(A)p.r(A)p.r(C)p.r(G)p.r(G)p.r(G)p.r(A)p.r(G)p.r(C)p.r(C)p.r(T)p.r(T)}|RNA2{r(G)p.r(G)p.r(C)p.r(U)p.r(C)p.r(C)p.r(C)p.r(G)p.r(U)p.m(U)p.r(A)p.r(G)p.r(A)p.m(C)p.r(A)p.r(C)p.r(U)p.r(C)p.r(G)p.r(T)p.r(T)}$$$RNA1{StrandType:ss}|RNA2{StrandType:as}$	65
RNA1{r(C)p.r(G)p.r(A)p.r(G)p.r(U)p.r(G)p.r(U)p.r(C)p.r(U)p.r(A)p.r(A)p.r(C)p.r(G)p.r(G)p.r(G)p.r(A)p.r(G)p.r(C)p.r(C)p.r(T)p.r(T)}|RNA2{r(G)p.r(G)p.r(C)p.r(U)p.r(C)p.r(C)p.r(C)p.r(G)p.r(U)p.m(U)p.r(A)p.r(G)p.r(A)p.r(C)p.r(A)p.r(C)p.r(U)p.r(C)p.r(G)p.r(T)p.r(T)}$$$RNA1{StrandType:ss}|RNA2{StrandType:as}$	68
RNA1{r(C)p.r(G)p.r(C)p.r(C)p.r(C)p.r(C)p.r(C)p.r(C)p.r(U)p.r(C)p.r(A)p.r(A)p.r(G)p.r(C)p.m(U)p.r(A)p.r(C)p.r(C)p.r(G)p.r(T)p.r(T)}|RNA2{r(C)p.r(G)p.r(G)p.m(U)p.r(A)p.r(G)p.r(C)p.r(U)p.r(U)p.r(G)p.r(A)p.r(G)p.r(G)p.r(G)p.r(G)p.r(G)p.r(G)p.r(C)p.r(G)p.r(T)p.r(T)}$$$RNA1{StrandType:ss}|RNA2{StrandType:as}$	76
RNA1{r(C)p.r(G)p.r(G)p.r(A)p.r(U)p.r(C)p.m(U)p.m(A)p.m(C)p.r(A)p.r(C)p.r(C)p.r(U)p.r(U)p.m(C)p.r(A)p.r(A)p.r(G)p.r(A)p.r(T)p.r(T)}|RNA2{r(U)p.r(C)p.r(U)p.m(U)p.r(G)p.r(A)p.r(A)p.r(G)p.r(G)p.m(U)p.r(G)p.m(U)p.r(A)p.r(G)p.r(A)p.r(U)p.r(C)p.r(C)p.r(G)p.r(T)p.r(T)}$$$RNA1{StrandType:ss}|RNA2{StrandType:as}$	40
RNA1{r(C)p.r(G)p.r(G)p.r(A)p.r(U)p.r(C)p.m(U)p.r(A)p.m(C)p.r(A)p.r(C)p.r(C)p.r(U)p.r(U)p.m(C)p.r(A)p.r(A)p.r(G)p.r(A)p.r(T)p.r(T)}|RNA2{r(U)p.r(C)p.r(U)p.m(U)p.r(G)p.r(A)p.r(A)p.r(G)p.r(G)p.m(U)p.r(G)p.m(U)p.r(A)p.r(G)p.r(A)p.r(U)p.r(C)p.r(C)p.r(G)p.r(T)p.r(T)}$$$RNA1{StrandType:ss}|RNA2{StrandType:as}$	68
RNA1{r(C)p.r(G)p.r(G)p.r(A)p.r(U)p.r(C)p.m(U)p.r(A)p.r(C)p.r(A)p.r(C)p.r(C)p.r(U)p.r(U)p.r(C)p.m(A)p.r(A)p.r(G)p.r(A)p.r(T)p.r(T)}|RNA2{r(U)p.r(C)p.r(U)p.m(U)p.r(G)p.r(A)p.r(A)p.r(G)p.r(G)p.m(U)p.r(G)p.m(U)p.r(A)p.r(G)p.r(A)p.r(U)p.r(C)p.r(C)p.r(G)p.r(T)p.r(T)}$$$RNA1{StrandType:ss}|RNA2{StrandType:as}$	42
RNA1{r(C)p.r(G)p.r(G)p.r(A)p.r(U)p.r(C)p.m(U)p.r(A)p.r(C)p.r(A)p.r(C)p.r(C)p.r(U)p.r(U)p.r(C)p.r(A)p.r(A)p.r(G)p.r(A)p.r(T)p.r(T)}|RNA2{r(U)p.r(C)p.r(U)p.r(U)p.r(G)p.r(A)p.r(A)p.r(G)p.r(G)p.r(U)p.r(G)p.m(U)p.r(A)p.r(G)p.r(A)p.r(U)p.r(C)p.r(C)p.r(G)p.r(T)p.r(T)}$$$RNA1{StrandType:ss}|RNA2{StrandType:as}$	69
RNA1{r(C)p.r(G)p.r(G)p.r(G)p.[fl2r](U)p.[fl2r](A)p.r(C)p.r(G)p.r(A)p.r(G)p.r(C)p.r(C)p.r(G)p.r(G)p.r(A)p.r(A)p.r(C)p.r(C)p.r(U)p.r(T)p.r(T)}|RNA2{r(A)p.r(G)p.r(G)p.r(U)p.r(U)p.r(C)p.r(C)p.r(G)p.r(G)p.r(C)p.r(U)p.r(C)p.r(G)p.[fl2r](U)p.r(A)p.r(C)p.r(C)p.r(C)p.r(G)p.r(T)p.r(T)}$$$RNA1{StrandType:ss}|RNA2{StrandType:as}$	68
RNA1{r(C)p.r(G)p.r(G)p.r(G)p.r(U)p.r(A)p.r(C)p.r(G)p.r(A)p.r(G)p.r(C)p.r(C)p.r(G)p.r(G)p.r(A)p.r(A)p.r(C)p.r(C)p.r(U)p.r(T)p.r(T)}|RNA2{r(A)p.r(G)p.r(G)p.r(U)p.r(U)p.r(C)p.r(C)p.r(G)p.r(G)p.r(C)p.r(U)p.r(C)p.r(G)p.[fl2r](U)p.r(A)p.r(C)p.r(C)p.r(C)p.r(G)p.r(T)p.r(T)}$$$RNA1{StrandType:ss}|RNA2{StrandType:as}$	69

Source: the OligoGym collection
